Measurements as given in patent US9162992B2, “Compounds and compositions for treatment of breathing control disorders or diseases” (GALLEON PHARMACEUTICALS, INC., priority 2010, dated 2015).

Assays:
[1] = Stability as a function of buffer strength (1 mg/mL, citrate pH 3.0); format: physicochemical; set-up: Assay: unit not given here; details: for Impurities: unit assumed
Protocol: A 10 mg/mL (XXXVI) solution in 100 mM citrate buffer at pH 3.0 and a 500 mM citrate buffer at pH 3.0 were prepared. Using these two stock solutions, (XXXVI) solutions at 1 mg/mL were prepared in citrate buffers of various concentrations in the range 10-250 mM, as shown in Table 12E.
Each of the above solutions was stored in 5 mL serum vials as ca. 2.5-3 mL aliquots (total of 7 aliquots). Two aliquots were stored at each of 40° C., 60° C. and 25° C. Aliquots stored at 25° C. served as controls to be evaluated if necessary. […]

rat KCNK3/TASK-1 = molecular target: T1, rat KCNK3/TASK-1 (Rattus norvegicus, UniProt O54912); experiment: Thallium flux through rat TASK-1 (KCNK3-CHO cells); format: cell-based; details: Tl+ flux; 3 nM to 30 μM; read-out: rTASK-1 IC50
T1 construct: expressed in transfected cells; host or cells: CHO cells (tetracycline-inducible)
T1 sequence (O54912 whole entry): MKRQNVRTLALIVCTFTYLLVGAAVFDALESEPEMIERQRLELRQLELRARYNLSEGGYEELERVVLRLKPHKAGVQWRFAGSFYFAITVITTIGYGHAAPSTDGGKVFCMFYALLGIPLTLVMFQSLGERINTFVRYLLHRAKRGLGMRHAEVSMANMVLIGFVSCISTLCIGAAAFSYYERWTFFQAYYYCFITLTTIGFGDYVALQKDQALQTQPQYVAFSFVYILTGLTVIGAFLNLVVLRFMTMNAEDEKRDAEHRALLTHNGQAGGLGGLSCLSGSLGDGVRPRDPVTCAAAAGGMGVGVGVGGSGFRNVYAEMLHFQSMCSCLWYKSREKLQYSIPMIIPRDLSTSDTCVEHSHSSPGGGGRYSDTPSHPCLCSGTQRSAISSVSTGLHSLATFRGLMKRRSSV
Protocol: CHO cells expressing recombinant tetracycline-inducible rat KCNK3/TASK-1 (KCNK3-CHO cells) were plated in poly-D-lysine coated 384-well plates at a density of 6,000 cells/well (50 μl/well of 120,000 cells/mL) and allowed to incubate for 72 hrs in the presence of 5% CO2 and 1 μg/mL tetracycline at 30° C. HEK cells expressing recombinant tetracycline-inducible human KCNK9/TASK-3 (KCNK9-HEK cells) were plated at a density of 15,000 cells per well (50 μl/well, 300,000 cells/mL) and incubated overnight at 37° C. and 5% CO2 in the presence of 1 μg/mL tetracycline.
Drug plates were generated from 10 mM 100% DMSO mother plates. Compounds were transferred to 384-well drug plates and titrated with sequential 1:3 dilutions in 100% DMSO for a total of 9 dilutions. A dilution plate is made by taking 2.4 μl from the mother plate and adding to […] of assay buffer for a 12% DMSO dilution plate. From this dilution plate, a final daughter plate is generated by taking 1 μA of the dilution plate and adding to 40 μA of assay buffer for a final DMSO concentration of 0.3%. Each compound was evaluated in duplicate and the concentration range evaluated was 3 nM to 30 μM.
When thallium was added to extracellular solution with a stimulus to open channels, Tl^+ flowed down its concentration gradient into the cells and channel activity was detected with an indicator dye, FluxOR™, that increased in cytosolic fluorescence. The FluxOR™ indicator dye was loaded into cells as a membrane permeable acetoxymethyl ester. On the day of each assay, FluxOR™ assay buffer was made fresh from Hank's Balanced Saline Solution (HBSS) buffered with 20 mM HEPES and pH adjusted to 7.4 with NaOH. Dye loading solution was prepared per manufacturer's instructions, and 25 μl of dye solution applied to each well with a multidropper after plating medium was removed manually from cells. Dye was allowed to load for 90 minutes at room temperature in the dark.
After the 90 min dye loading incubation and subsequent manual dye removal, 24 μl of the drug daughter plate was transfer to cell plates by a cybi-well system and then incubated at room temperature for 20 minutes to allow for equilibration within wells. Stimulation buffer was prepared from 5× chloride-free buffer, thallium, and potassium sulfate containing 5 times the desired final assay concentration of 10 mM K^+ 2.8 mM Tl^+. Cell plates were then transferred to an FDSS 6000 kinetic imaging plate reader (Hamamatsu). Fluorescence at 525 nm (excitation 488 nm) was measured for 10 seconds at 1 Hz to establish baseline for the entire plate. After baseline was established, 6 μl/well of stimulation buffer was added and fluorescence signal recorded for another 140 seconds.
From the fluorescence signals in the absence and presence of Galleon compounds, Inhibitory concentration curves were plotted and IC50 values were estimated using a curve fitting algorithm.

Structure (SMILES): CCCNc1nc(NCCC)nc(N(C)OC)n1 [XXXV, N-(4,6-Bis-n-propylamino-[1,3,5]triazin-2-yl)-N,O-dimethyl-hydroxylamine]
- Assay ([1]; 10 mM, 40° C. 1 wk): 0.953
- pH ([1]; 10 mM, 40° C. 1 wk): 3.26
- Assay ([1]; 10 mM, 40° C. 2 wk): 0.947
- pH ([1]; 10 mM, 40° C. 2 wk): 3.21
- Assay ([1]; 10 mM, 60° C. 1 wk): 0.953
- pH ([1]; 10 mM, 60° C. 1 wk): 3.3
- Impurities ([1]; 10 mM, 60° C. 1 wk): 0.48%
- Assay ([1]; 10 mM, 60° C. 2 wk): 0.956
- pH ([1]; 10 mM, 60° C. 2 wk): 3.2
- Impurities ([1]; 10 mM, 60° C. 2 wk): 0.89%
- Assay ([1]; 10 mM, initial): 0.971
- pH ([1]; 10 mM, initial): 3.16
- Assay ([1]; 20 mM, 40° C. 1 wk): 0.965
- pH ([1]; 20 mM, 40° C. 1 wk): 3.33
- Impurities ([1]; 20 mM, 40° C. 1 wk): 0.13%
- Assay ([1]; 20 mM, 40° C. 2 wk): 0.966
- pH ([1]; 20 mM, 40° C. 2 wk): 3.30
- Assay ([1]; 20 mM, 60° C. 1 wk): 0.943
- pH ([1]; 20 mM, 60° C. 1 wk): 3.3
- Impurities ([1]; 20 mM, 60° C. 1 wk): 0.58%
- Assay ([1]; 20 mM, 60° C. 2 wk): 0.947
- pH ([1]; 20 mM, 60° C. 2 wk): 3.3
- Impurities ([1]; 20 mM, 60° C. 2 wk): 0.88%
- Assay ([1]; 20 mM, initial): 1.01
- pH ([1]; 20 mM, initial): 3.27
- Assay ([1]; 50 mM, 40° C. 1 wk): 0.959
- pH ([1]; 50 mM, 40° C. 1 wk): 3.34
- Assay ([1]; 50 mM, 40° C. 2 wk): 0.949
- pH ([1]; 50 mM, 40° C. 2 wk): 3.29
- Assay ([1]; 50 mM, 60° C. 1 wk): 0.936
- pH ([1]; 50 mM, 60° C. 1 wk): 3.3
- Impurities ([1]; 50 mM, 60° C. 1 wk): 0.59%
- Assay ([1]; 50 mM, 60° C. 2 wk): 0.943
- pH ([1]; 50 mM, 60° C. 2 wk): 3.3
- Impurities ([1]; 50 mM, 60° C. 2 wk): 0.87%
- Assay ([1]; 50 mM, initial): 0.976
- pH ([1]; 50 mM, initial): 3.28
- Assay ([1]; 100 mM, 40° C. 1 wk): 0.964
- pH ([1]; 100 mM, 40° C. 1 wk): 3.32
- Impurities ([1]; 100 mM, 40° C. 1 wk): 0.26%
- Assay ([1]; 100 mM, 40° C. 2 wk): 0.956
- pH ([1]; 100 mM, 40° C. 2 wk): 3.29
- Impurities ([1]; 100 mM, 40° C. 2 wk): 0.38%
- Assay ([1]; 100 mM, 60° C. 1 wk): 0.962
- pH ([1]; 100 mM, 60° C. 1 wk): 3.3
- Impurities ([1]; 100 mM, 60° C. 1 wk): 0.73%
- Assay ([1]; 100 mM, 60° C. 2 wk): 0.946
- pH ([1]; 100 mM, 60° C. 2 wk): 3.2
- Impurities ([1]; 100 mM, 60° C. 2 wk): 1.2%
- Assay ([1]; 100 mM, initial): 0.962
- pH ([1]; 100 mM, initial): 3.30
- Assay ([1]; 250 mM, 40° C. 1 wk): 0.972
- pH ([1]; 250 mM, 40° C. 1 wk): 3.25
- Impurities ([1]; 250 mM, 40° C. 1 wk): 0.21%
- Assay ([1]; 250 mM, 40° C. 2 wk): 0.945
- pH ([1]; 250 mM, 40° C. 2 wk): 3.22
- Impurities ([1]; 250 mM, 40° C. 2 wk): 0.56%
- Assay ([1]; 250 mM, 60° C. 1 wk): 0.955
- pH ([1]; 250 mM, 60° C. 1 wk): 3.2
- Impurities ([1]; 250 mM, 60° C. 1 wk): 1.03%
- Assay ([1]; 250 mM, 60° C. 2 wk): 0.936
- pH ([1]; 250 mM, 60° C. 2 wk): 3.2
- Impurities ([1]; 250 mM, 60° C. 2 wk): 1.8%
- Assay ([1]; 250 mM, initial): 0.947
- pH ([1]; 250 mM, initial): 3.21
- effect of buffer strength on impurity levels ([1]; 40° C., buffer concentration relevant to the formulation (ca. 10-50 mM)): no effect of buffer strength at 40 °C

Structure (SMILES): CCCNc1nc(NCCC)nc(N(C)OC)n1.O=S(=O)(O)O [XXXVI, N-(4,6-Bis-n-propylamino-[1,3,5]triazin-2-yl)-N,O-dimethyl-hydroxylamine hydrogen sulfate]
- IC50 (rat KCNK3/TASK-1): 25 µM
